Reference: patent US12581252B2, “Substituted pyrrolo[3,4-b]pyridines as PI3K-α inhibitors” (Relay Therapeutics, Inc., priority 2020, dated 2026)

Target: H1047R PIK3CA enzyme (Homo sapiens, UniProt P42336, H1047R)
Assay: ADP-Glo Biochemical PIK3CA Kinase Assay

Chain of H1047R PIK3CA enzyme (P42336 whole entry H1047R): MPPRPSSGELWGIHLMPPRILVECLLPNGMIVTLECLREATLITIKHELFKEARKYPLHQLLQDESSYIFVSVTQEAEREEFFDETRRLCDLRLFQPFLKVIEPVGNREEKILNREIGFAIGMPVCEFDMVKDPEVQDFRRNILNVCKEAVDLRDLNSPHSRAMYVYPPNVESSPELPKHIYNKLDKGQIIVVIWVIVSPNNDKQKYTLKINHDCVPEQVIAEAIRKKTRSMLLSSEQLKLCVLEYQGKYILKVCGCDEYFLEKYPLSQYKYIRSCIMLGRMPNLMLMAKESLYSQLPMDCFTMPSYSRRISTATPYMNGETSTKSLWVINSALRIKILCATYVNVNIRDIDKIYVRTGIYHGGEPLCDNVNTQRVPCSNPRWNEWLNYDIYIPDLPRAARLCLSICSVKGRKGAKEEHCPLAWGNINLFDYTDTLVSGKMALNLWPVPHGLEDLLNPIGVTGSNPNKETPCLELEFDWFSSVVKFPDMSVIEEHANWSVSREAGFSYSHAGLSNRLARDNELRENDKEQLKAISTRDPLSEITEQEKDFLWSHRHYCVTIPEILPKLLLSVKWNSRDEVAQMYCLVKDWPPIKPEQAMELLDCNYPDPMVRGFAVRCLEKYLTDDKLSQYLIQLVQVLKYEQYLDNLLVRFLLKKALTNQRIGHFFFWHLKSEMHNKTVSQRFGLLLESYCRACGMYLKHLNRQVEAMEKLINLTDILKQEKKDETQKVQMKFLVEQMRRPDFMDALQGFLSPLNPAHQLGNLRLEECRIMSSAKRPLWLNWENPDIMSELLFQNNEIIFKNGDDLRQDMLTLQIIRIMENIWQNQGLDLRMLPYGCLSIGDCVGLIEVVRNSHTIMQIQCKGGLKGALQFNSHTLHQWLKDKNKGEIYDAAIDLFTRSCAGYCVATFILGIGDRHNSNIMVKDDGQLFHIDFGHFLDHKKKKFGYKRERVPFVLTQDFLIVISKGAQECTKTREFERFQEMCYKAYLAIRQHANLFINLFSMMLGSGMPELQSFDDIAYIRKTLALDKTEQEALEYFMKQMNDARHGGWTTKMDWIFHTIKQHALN
Chain of H1047R PIK3CA enzyme (P27986 whole entry partner): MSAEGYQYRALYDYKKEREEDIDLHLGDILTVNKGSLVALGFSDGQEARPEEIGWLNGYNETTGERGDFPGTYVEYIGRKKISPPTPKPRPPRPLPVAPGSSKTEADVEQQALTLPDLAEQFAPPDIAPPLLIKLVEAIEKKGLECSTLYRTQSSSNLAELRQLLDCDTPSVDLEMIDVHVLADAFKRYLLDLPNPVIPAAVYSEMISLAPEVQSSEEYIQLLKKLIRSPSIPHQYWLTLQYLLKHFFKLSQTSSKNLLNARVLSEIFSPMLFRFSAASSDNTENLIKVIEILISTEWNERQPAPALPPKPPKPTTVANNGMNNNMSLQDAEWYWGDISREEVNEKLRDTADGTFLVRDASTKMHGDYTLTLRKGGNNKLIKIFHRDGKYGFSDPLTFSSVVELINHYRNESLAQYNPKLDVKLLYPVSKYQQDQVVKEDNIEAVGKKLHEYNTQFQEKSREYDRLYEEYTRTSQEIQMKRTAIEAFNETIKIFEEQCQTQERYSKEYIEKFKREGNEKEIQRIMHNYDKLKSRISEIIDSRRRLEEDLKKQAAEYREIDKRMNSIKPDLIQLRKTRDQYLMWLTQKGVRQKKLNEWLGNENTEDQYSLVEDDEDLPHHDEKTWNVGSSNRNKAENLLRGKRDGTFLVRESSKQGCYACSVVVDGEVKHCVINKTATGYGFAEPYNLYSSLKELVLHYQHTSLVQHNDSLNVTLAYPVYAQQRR

SMILES | IC50
N#CCc1cc(NC(=O)N2C[C@@H](O)c3cc(F)ccc32)c2c(c1)C(=O)N[C@@H]2c1cc(F)ccc1Cl (single isomer, unassigned) [Compound I-2538] | ≤ 100 nM
N#CCc1cc(NC(=O)N2C[C@H](O)c3cc(F)ccc32)c2c(c1)C(=O)N[C@H]2c1cc(F)ccc1Cl (single isomer, unassigned) [Compound I-2539] | 1000 to 10000 nM
COCc1cc(NC(=O)N2C[C@](O)(C(F)(F)F)c3cc(F)ccc32)c2c(c1)C(=O)N[C@@H]2c1cc(F)ccc1Cl (single isomer, unassigned) [Compound I-2542] | 1000 to 10000 nM
COCc1cc(NC(=O)N2C[C@@](O)(C(F)(F)F)c3cc(F)ccc32)c2c(c1)C(=O)N[C@H]2c1cc(F)ccc1Cl (single isomer, unassigned) [Compound I-2543] | 1000 to 10000 nM
O=C1N[C@H](c2cc(F)ccc2Cl)c2c(NC(=O)N3C[C@](O)(C(F)(F)F)c4cc(F)ccc43)cc(-n3ccnn3)cc21 (single isomer, unassigned) [Compound I-2548] | 1000 to 10000 nM
O=C1N[C@@H](c2cc(F)ccc2Cl)c2c(NC(=O)N3C[C@@](O)(C(F)(F)F)c4cc(F)ccc43)cc(-n3ccnn3)cc21 (single isomer, unassigned) [Compound I-2549] | 100 to 500 nM
O=C1N[C@@H](c2cc(F)ccc2Cl)c2c(NC(=O)N3C[C@](O)(C(F)(F)F)c4cc(F)ccc43)cc(-n3ccnn3)cc21 (single isomer, unassigned) [Compound I-2550] | 1000 to 10000 nM
N#CC1(COc2cc(NC(=O)N3C[C@@H](O)c4cc(F)ccc43)c3c(c2)C(=O)N[C@H]3c2cc(F)ccc2Cl)CC1 (single isomer, unassigned) [Compound I-2551] | 1000 to 10000 nM
N#CC1(COc2cc(NC(=O)N3C[C@H](O)c4cc(F)ccc43)c3c(c2)C(=O)N[C@H]3c2cc(F)ccc2Cl)CC1 (single isomer, unassigned) [Compound I-2553] | 100 to 500 nM
N#CC1(COc2cc(NC(=O)N3C[C@H](O)c4cc(F)ccc43)c3c(c2)C(=O)N[C@@H]3c2cc(F)ccc2Cl)CC1 (single isomer, unassigned) [Compound I-2554] | 100 to 500 nM
O=C1N[C@@H](c2cc(F)ccc2Cl)c2c(NC(=O)N3C[C@@](O)(C(F)F)c4cc(F)ccc43)cccc21 (single isomer, unassigned) [Compound I-2555] | 1000 to 10000 nM
O=C1N[C@H](c2cc(F)ccc2Cl)c2c(NC(=O)N3C[C@@](O)(C(F)F)c4cc(F)ccc43)cccc21 (single isomer, unassigned) [Compound I-2556] | 500 to 1000 nM
O=C1N[C@@H](c2cc(F)ccc2Cl)c2c(NC(=O)N3C[C@](O)(C(F)F)c4cc(F)ccc43)cccc21 (single isomer, unassigned) [Compound I-2557] | 1000 to 10000 nM
N#Cc1cc(NC(=O)N2C[C@@](O)(C(F)(F)F)c3cc(F)ccc32)c2c(c1)C(=O)N[C@H]2c1cc(F)ccc1Cl (single isomer, unassigned) [Compound I-2559] | 1000 to 10000 nM
N#Cc1cc(NC(=O)N2C[C@](O)(C(F)(F)F)c3cc(F)ccc32)c2c(c1)C(=O)N[C@H]2c1cc(F)ccc1Cl (single isomer, unassigned) [Compound I-2561] | 1000 to 10000 nM
N#Cc1cc(NC(=O)N2C[C@@](O)(C(F)(F)F)c3ccccc32)c2c(c1)C(=O)N[C@H]2c1cc(F)ccc1Cl (single isomer, unassigned) [Compound I-2563] | 1000 to 10000 nM
N#Cc1cc(NC(=O)N2C[C@](O)(C(F)(F)F)c3ccccc32)c2c(c1)C(=O)N[C@H]2c1cc(F)ccc1Cl (single isomer, unassigned) [Compound I-2565] | 1000 to 10000 nM
O=C1N[C@H](c2cc(F)ccc2Cl)c2c(NC(=O)N3C[C@](O)(C(F)(F)F)c4cc(F)ccc43)cc(-n3nccn3)cc21 (single isomer, unassigned) [Compound I-2570] | 1000 to 10000 nM
O=C1N[C@@H](c2cc(F)ccc2Cl)c2c(NC(=O)N3C[C@@](O)(C(F)(F)F)c4cc(F)ccc43)cc(-n3nccn3)cc21 (single isomer, unassigned) [Compound I-2571] | 1000 to 10000 nM
CC(=O)Nc1cc(NC(=O)N2C[C@](O)(C(F)(F)F)c3cc(F)ccc32)c2c(c1)C(=O)N[C@H]2c1cc(F)ccc1Cl (single isomer, unassigned) [Compound I-2574] | 100 to 500 nM
CC(=O)Nc1cc(NC(=O)N2C[C@@](O)(C(F)(F)F)c3cc(F)ccc32)c2c(c1)C(=O)N[C@@H]2c1cc(F)ccc1Cl (single isomer, unassigned) [Compound I-2575] | 1000 to 10000 nM
O=C1N[C@H](c2cc(F)ccc2Cl)c2c(NC(=O)N3C[C@@](O)(C(F)(F)F)c4cc(F)ccc43)cc(C(F)F)cc21 (single isomer, unassigned) [Compound I-2577] | 1000 to 10000 nM
O=C1N[C@@H](c2cc(F)ccc2Cl)c2c(NC(=O)N3C[C@@](O)(C(F)(F)F)c4cc(F)ccc43)cc(C(F)F)cc21 (single isomer, unassigned) [Compound I-2578] | 1000 to 10000 nM
NCCc1cc(NC(=O)N2C[C@](O)(C(F)(F)F)c3cc(F)ccc32)c2c(c1)C(=O)N[C@H]2c1cc(F)ccc1Cl (single isomer, unassigned) [Compound I-2582] | 100 to 500 nM

SMILES | IC50
NCCc1cc(NC(=O)N2C[C@@](O)(C(F)(F)F)c3cc(F)ccc32)c2c(c1)C(=O)N[C@@H]2c1cc(F)ccc1Cl (single isomer, unassigned) [Compound I-2583] | 1000 to 10000 nM
O=C1N[C@@H](c2cc(F)ccc2Cl)c2c(NC(=O)N3C[C@@](O)(C(F)F)c4cc(F)ccc43)cc(Cl)cc21 (single isomer, unassigned) [Compound I-2588] | 1000 to 10000 nM
O=C1N[C@@H](c2cc(F)ccc2Cl)c2c(NC(=O)N3C[C@@](O)(C(F)F)c4cc(F)ccc43)cc(Cl)cc21 (single isomer, unassigned) [Compound I-2589] | 1000 to 10000 nM
O=C1N[C@@H](c2cc(F)ccc2Cl)c2c(NC(=O)N3C[C@](O)(C(F)F)c4cc(F)ccc43)cc(Cl)cc21 (single isomer, unassigned) [Compound I-2590] | 1000 to 10000 nM
[2H]C1([2H])N(C(=O)Nc2cccc3c2[C@@H](c2cc(F)ccc2Cl)NC3=O)c2ccc(F)cc2[C@]1(O)C(F)(F)F (single isomer, unassigned) [Compound I-2592] | 1000 to 10000 nM
[2H]C1([2H])N(C(=O)Nc2cccc3c2[C@H](c2cc(F)ccc2Cl)NC3=O)c2ccc(F)cc2[C@@]1(O)C(F)(F)F (single isomer, unassigned) [Compound I-2593] | 1000 to 10000 nM
[2H]C1([2H])N(C(=O)Nc2cccc3c2[C@@H](c2cc(F)ccc2Cl)NC3=O)c2ccc(F)cc2[C@@]1(O)C(F)(F)F (single isomer, unassigned) [Compound I-2594] | 1000 to 10000 nM
N#CCc1cc(NC(=O)N2C[C@](O)(C(F)F)c3cc(F)ccc32)c2c(c1)C(=O)N[C@@H]2c1cc(F)ccc1Cl (single isomer, unassigned) [Compound I-2598] | 1000 to 10000 nM
N#CCc1cc(NC(=O)N2C[C@@](O)(C(F)F)c3cc(F)ccc32)c2c(c1)C(=O)N[C@H]2c1cc(F)ccc1Cl (single isomer, unassigned) [Compound I-2599] | 100 to 500 nM
N#CCc1cc(NC(=O)N2C[C@@](O)(C(F)F)c3cc(F)ccc32)c2c(c1)C(=O)N[C@@H]2c1cc(F)ccc1Cl (single isomer, unassigned) [Compound I-2600] | 500 to 1000 nM
N#CCc1cc(NC(=O)N2C[C@@](O)(C(F)(F)F)c3ccccc32)c2c(c1)C(=O)N[C@H]2c1cc(F)ccc1Cl (single isomer, unassigned) [Compound I-2602] | 1000 to 10000 nM
N#CCc1cc(NC(=O)N2C[C@@](O)(C(F)(F)F)c3ccccc32)c2c(c1)C(=O)N[C@@H]2c1cc(F)ccc1Cl (single isomer, unassigned) [Compound I-2603] | 1000 to 10000 nM
N#CCc1cc(NC(=O)N2C[C@](O)(C(F)(F)F)c3ccccc32)c2c(c1)C(=O)N[C@H]2c1cc(F)ccc1Cl (single isomer, unassigned) [Compound I-2604] | 500 to 1000 nM
CNc1cc(NC(=O)N2C[C@@](O)(C(F)(F)F)c3cc(F)ccc32)c2c(c1C#N)C(=O)N[C@H]2c1cc(F)ccc1Cl (single isomer, unassigned) [Compound I-2606] | 1000 to 10000 nM
CNc1cc(NC(=O)N2C[C@@](O)(C(F)(F)F)c3cc(F)ccc32)c2c(c1C#N)C(=O)N[C@@H]2c1cc(F)ccc1Cl (single isomer, unassigned) [Compound I-2607] | 1000 to 10000 nM
CNc1cc(NC(=O)N2C[C@](O)(C(F)(F)F)c3cc(F)ccc32)c2c(c1C#N)C(=O)N[C@H]2c1cc(F)ccc1Cl (single isomer, unassigned) [Compound I-2608] | 1000 to 10000 nM
CC(C)(C#N)n1cc(-c2cc(NC(=O)N3C[C@](O)(C(F)(F)F)c4cc(F)ccc43)c3c(c2)C(=O)N[C@@H]3c2cc(F)ccc2Cl)cn1 (single isomer, unassigned) [Compound I-2610] | 1000 to 10000 nM
CC(C)(C#N)n1cc(-c2cc(NC(=O)N3C[C@@](O)(C(F)(F)F)c4cc(F)ccc43)c3c(c2)C(=O)N[C@H]3c2cc(F)ccc2Cl)cn1 (single isomer, unassigned) [Compound I-2612] | 1000 to 10000 nM
N#CCc1ccc(NC(=O)N2C[C@](O)(C(F)(F)F)c3cc(F)ccc32)c2c1C(=O)N[C@@H]2c1cc(F)ccc1Cl (single isomer, unassigned) [Compound I-2615] | 1000 to 10000 nM
N#CCc1ccc(NC(=O)N2C[C@@](O)(C(F)(F)F)c3cc(F)ccc32)c2c1C(=O)N[C@H]2c1cc(F)ccc1Cl (single isomer, unassigned) [Compound I-2616] | 1000 to 10000 nM
N#CCc1ccc(NC(=O)N2C[C@@](O)(C(F)(F)F)c3cc(F)ccc32)c2c1C(=O)N[C@@H]2c1cc(F)ccc1Cl (single isomer, unassigned) [Compound I-2617] | 1000 to 10000 nM
O=C1N[C@@H](c2cc(F)ccc2Cl)c2c(NC(=O)N3C[C@](O)(C(F)(F)F)c4cc(F)ccc43)ccc(Cl)c21 (single isomer, unassigned) [Compound I-2619] | 1000 to 10000 nM
O=C1N[C@H](c2cc(F)ccc2Cl)c2c(NC(=O)N3C[C@@](O)(C(F)(F)F)c4cc(F)ccc43)ccc(Cl)c21 (single isomer, unassigned) [Compound I-2620] | 1000 to 10000 nM
